Assay results reported in patent US5324648A, “Substituted isocoumarins as serine protease inhibitors and anti-inflammatory agents” (Georgia Tech Research Corporation, priority 1992, dated 1994).
Like-named read-outs stand apart in the source and are kept apart here.

Tests used:
[1] = Activated partial thromboplastin time (APTT), human plasma
Cl^- r = molecular target: T1, Cl^- r (Homo sapiens, UniProt P00736); test: Inactivation rate of complement protein C1r; type: biochemical; conditions: Table II; pH 7.5, 25° C; [I] 4.6 to 470 μM; read-out: kobs/[I]
T1 construct: Cl^- r^f
T1 sequence (P00736 464-705 limits assumed): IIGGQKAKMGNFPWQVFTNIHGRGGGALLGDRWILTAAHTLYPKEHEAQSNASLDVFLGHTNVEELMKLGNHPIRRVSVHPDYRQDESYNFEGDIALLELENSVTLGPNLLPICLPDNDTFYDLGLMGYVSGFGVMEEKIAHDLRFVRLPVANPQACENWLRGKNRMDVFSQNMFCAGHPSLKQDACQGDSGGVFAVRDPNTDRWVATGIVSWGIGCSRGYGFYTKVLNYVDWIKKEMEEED
T1 sequence (P00736 18-463 partner limits assumed): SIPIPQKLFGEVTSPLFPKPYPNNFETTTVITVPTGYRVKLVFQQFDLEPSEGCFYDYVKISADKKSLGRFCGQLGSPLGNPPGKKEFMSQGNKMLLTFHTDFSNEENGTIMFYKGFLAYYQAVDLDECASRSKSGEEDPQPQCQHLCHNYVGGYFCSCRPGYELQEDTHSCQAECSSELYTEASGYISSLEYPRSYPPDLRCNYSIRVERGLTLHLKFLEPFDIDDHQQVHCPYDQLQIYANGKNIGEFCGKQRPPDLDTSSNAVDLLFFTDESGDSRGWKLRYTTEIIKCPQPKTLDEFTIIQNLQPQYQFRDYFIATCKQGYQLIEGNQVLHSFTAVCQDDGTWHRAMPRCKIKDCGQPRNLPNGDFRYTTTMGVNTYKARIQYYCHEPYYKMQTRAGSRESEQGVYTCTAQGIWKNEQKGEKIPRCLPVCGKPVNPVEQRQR
Method: (§1) Inactivation rates of serine proteases by substituted isocoumarins were measured by the incubation method. An aliquot of inhibitor (25 or 50 μl) in Me2 SO was added to a buffered enzyme solution (0.01-2.3 μM) to initiate the inactivation. Aliquots (50 μl) were withdrawn at various intervals and the residual enzymatic activity was measured. Me2 SO concentration in the reaction mixture was 8-12% (v/v). 0.1 Hepes, 0.01M CaCl2, pH 7.5 buffer was utilized for trypsin and coagulation enzymes. 0.1M Hepes, 0.5M NaCl, pH 7.5 was utilized for other serine proteases. The inhibitor concentrations are shown in all the tables. Peptide thioesters or peptide nitroanilides with appropriate sequence were used as substrates for various serine proteases. All peptide thioester hydrolysis rates were measured with assay mixtures containing 4,4'-dithiodipyridine (ε324 =19800M^-1 cm^-1; Grasetti & Murray, Arch. Biochem. Biophys. 119, pp 41-49 (1967)). Peptide 4-nitroanilide nitroanilide hydrolysis was measured at 410 nm (ε410 =8800M^-1 cm^-1; Erlanger et al., Arch. Biochem. Biophys. 95, pp 271-278 (1961)). First order inactivation rate constant (kobs) were obtained from plots of ln (vt /vo) vs time, and the correlation coefficients were greater than 0.98.
^a Conditions were 0.1M Hepes, 0.5M NaCl, pH 7.5, 8-10% Me2 SO
and 25° C. Inactivation rates were measured by incubation method.
Enzyme concentrations were as follows: protein D, 1-9 μM; C2, 0.7-1
μM; B, 1.8 μM; Bb, 0.3-0.8 μM; Cl^- s, 0.07 μM; Cl^-

cathepsin G = molecular target: T2, cathepsin G (Homo sapiens, UniProt P08311); test: Inactivation of cathepsin G; type: biochemical; conditions: for kinact/KI: pH 7.5, 25° C, read-out: kobs/[I]
T2 construct: from tissue; host or cells: human leukocytes
T2 sequence (P08311 21-255): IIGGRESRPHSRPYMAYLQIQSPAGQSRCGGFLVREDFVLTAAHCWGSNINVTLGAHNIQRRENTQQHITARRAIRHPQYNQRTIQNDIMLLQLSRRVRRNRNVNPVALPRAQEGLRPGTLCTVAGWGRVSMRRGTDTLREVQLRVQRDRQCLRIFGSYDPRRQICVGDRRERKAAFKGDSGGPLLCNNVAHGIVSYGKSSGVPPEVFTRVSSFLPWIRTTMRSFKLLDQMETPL

[2] = molecular target: T3, porcine pancreatic elastase (PPE) (Sus scrofa, UniProt P00772); test: Inactivation of porcine pancreatic elastase (PPE); type: biochemical; conditions: pH 7.5, 25° C, read-out: kobs/[I]
T3 construct: from tissue; host or cells: porcine pancreas (from the name)

human factor XIa = molecular target: T4, human factor XIa (Homo sapiens, UniProt P03951); test: Inactivation rate of human factor XIa; type: biochemical; conditions: pH 7.5, 25° C, read-out: kobs/[I]
T4 construct: human factor XIa
Method: as §1
^a Conditions were as 0.1M Hepes, 0.01M CaCl2, pH 7.5 and 8-12%
Me2 SO and 25° C. Rate constants were measured by incubation
method unless otherwise noted. An aliquot of inhibitor was added to an
enzyme solution and aliquots removed with time and assayed for remaining
enzymatic activity. Firstorder rate constants, kobs were obtained
from the plots of ln(vt /vo) versus time.
^a Inhibition rates were measured in 0.1M Hepes, 0.01M CaCl2, pH
7.5 buffer, 8% Me2 SO and at 25° C.

chymotrypsin = chymotrypsin (Bos taurus, UniProt P00766); test: Inactivation of chymotrypsin; type: biochemical, bovine; conditions: pH 7.5, 25° C, read-out: kobs/[I]
[3] = molecular target: T5, human leukocyte elastase (HLE) (Homo sapiens, UniProt P08246); test: Inactivation of human leukocyte elastase (HLE); type: biochemical
T5 construct: from tissue; host or cells: human leukocytes (from the name)
T5 sequence (P08246 30-267): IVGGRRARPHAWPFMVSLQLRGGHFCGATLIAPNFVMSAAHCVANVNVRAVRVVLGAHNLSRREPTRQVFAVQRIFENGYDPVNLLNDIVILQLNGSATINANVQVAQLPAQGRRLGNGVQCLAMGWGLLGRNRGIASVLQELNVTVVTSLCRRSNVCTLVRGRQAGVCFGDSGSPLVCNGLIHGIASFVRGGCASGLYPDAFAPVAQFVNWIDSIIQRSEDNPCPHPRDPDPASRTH

[4] = Table IV, pH 7.5, 25° C, [I] 0.001 to 0.18 mM, read-out: kobs/[I]

T3 sequence (P00772 27-266): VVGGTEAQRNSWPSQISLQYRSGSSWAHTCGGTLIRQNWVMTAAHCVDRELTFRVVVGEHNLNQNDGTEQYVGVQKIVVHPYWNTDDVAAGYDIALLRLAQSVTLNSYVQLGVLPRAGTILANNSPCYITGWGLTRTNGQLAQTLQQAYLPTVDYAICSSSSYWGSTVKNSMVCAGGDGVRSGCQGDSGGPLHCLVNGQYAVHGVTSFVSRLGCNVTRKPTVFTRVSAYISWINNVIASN
T4 sequence (P03951 388-625 limits assumed): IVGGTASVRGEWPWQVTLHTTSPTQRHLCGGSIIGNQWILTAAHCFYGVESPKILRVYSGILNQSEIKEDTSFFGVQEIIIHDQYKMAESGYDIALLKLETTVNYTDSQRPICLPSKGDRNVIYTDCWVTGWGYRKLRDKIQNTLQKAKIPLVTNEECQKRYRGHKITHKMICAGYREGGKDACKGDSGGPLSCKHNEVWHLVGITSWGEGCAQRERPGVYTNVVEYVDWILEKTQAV
T4 sequence (P03951 19-387 partner limits assumed): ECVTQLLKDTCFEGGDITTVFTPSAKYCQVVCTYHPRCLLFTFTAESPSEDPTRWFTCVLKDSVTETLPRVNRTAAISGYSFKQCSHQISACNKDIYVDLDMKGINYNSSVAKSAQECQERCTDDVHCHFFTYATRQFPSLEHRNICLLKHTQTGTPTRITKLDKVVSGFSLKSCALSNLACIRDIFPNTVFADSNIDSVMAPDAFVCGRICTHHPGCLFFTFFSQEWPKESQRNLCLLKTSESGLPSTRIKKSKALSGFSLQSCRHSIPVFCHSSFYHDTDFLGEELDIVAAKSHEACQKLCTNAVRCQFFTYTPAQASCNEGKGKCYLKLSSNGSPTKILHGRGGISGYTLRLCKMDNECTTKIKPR

## O=c1oc(Cl)c(Cl)c2ccccc12 [3,4-dichloroisocoumarin, reference compound]
[1]; [I] 33 μM
  APTT: 26.6 s
[1]; [I] 45 μM
  APTT: 26.0 s
Cl^- r
  kinact/KI: 42 M⁻¹ s⁻¹

## N=C(N)SCCOc1oc(=O)c2ccccc2c1Cl [3-(2-isothiureidoethoxy)-4-chloroisocoumarin]
Cathepsin G; Table IV, [I] 0.002 to 0.35 mM
  kinact/KI: 110 M⁻¹ s⁻¹
[2]; Table IV, [I] 0.01 to 0.51 mM
  kinact/KI: 270 M⁻¹ s⁻¹
Human factor XIa; Table I, [I] 3 to 330 μM
  kinact/KI: 44000 M⁻¹ s⁻¹
chymotrypsin; Table IV, [I] 0.004 to 0.33 mM
  kinact/KI: 1300 M⁻¹ s⁻¹
[3]; [4]
  kinact/KI: 220 M⁻¹ s⁻¹

## NCCCOc1oc(=O)c2ccccc2c1Cl [3-(3-aminopropoxy)-4-chloroisocoumarin]
Cathepsin G; Table IV, [I] 0.002 to 0.35 mM
  kinact/KI: 260 M⁻¹ s⁻¹
[2]; Table IV, [I] 0.01 to 0.51 mM
  kinact/KI: 70 M⁻¹ s⁻¹
Human factor XIa; Table I, [I] 3 to 330 μM
  kinact/KI: 380 M⁻¹ s⁻¹
chymotrypsin; Table IV, [I] 0.004 to 0.33 mM
  kinact/KI: 580 M⁻¹ s⁻¹
[3]; [4]
  kinact/KI: 860 M⁻¹ s⁻¹

## N=C(N)SCCCOc1oc(=O)c2ccccc2c1Cl [3-(3-isothiureidopropoxy)-4-chloroisocoumarin]
[1]; [I] 31 μM
  APTT: 25.8 s
Cathepsin G; Table IV, [I] 0.002 to 0.35 mM
  kinact/KI: 83 M⁻¹ s⁻¹
[2]; Table IV, [I] 0.01 to 0.51 mM
  kinact/KI: 70 M⁻¹ s⁻¹
Human factor XIa; Table I, [I] 3 to 330 μM
  kinact/KI: 47000 M⁻¹ s⁻¹
chymotrypsin; Table IV, [I] 0.004 to 0.33 mM
  kinact/KI: 1700 M⁻¹ s⁻¹
Cl^- r
  kinact/KI: 6610 M⁻¹ s⁻¹
[3]; [4]
  kinact/KI: 2000 M⁻¹ s⁻¹

## N=C(N)SCCCOc1oc(=O)c2cc(N)ccc2c1Cl [7-amino-4-chloro-3-(3-isothiureidopropoxy)isocoumarin]
[1]; [I] 2.9 μM
  APTT: 100.8 s
[1]; [I] 29 μM
  APTT: > 120 s
Cathepsin G; Table IV, [I] 0.002 to 0.35 mM
  kinact/KI: 36 M⁻¹ s⁻¹
[2]; Table IV, [I] 0.01 to 0.51 mM
  kinact/KI: 1 M⁻¹ s⁻¹
Human factor XIa; Table I, [I] 3 to 330 μM
  kinact/KI: 22000 M⁻¹ s⁻¹
chymotrypsin; Table IV, [I] 0.004 to 0.33 mM
  kinact/KI: 1600 M⁻¹ s⁻¹
Cl^- r
  kinact/KI: 1320 M⁻¹ s⁻¹
[3]; [4]
  kinact/KI: 130 M⁻¹ s⁻¹

## CCOc1oc(=O)c2cc(NC(=N)N)ccc2c1Cl [7-guanidino-3-ethoxy-4-chloroisocoumarin, 7-guanidino-4-chloro-3-ethoxyisocoumarin]
[1]; [I] 4.3 μM
  APTT: 74.8 s
[1]; [I] 21 μM
  APTT: > 120 s
[1]; [I] 53 μM
  APTT: > 120 s
[1]; [I] 107 μM
  APTT: > 120 s
Cathepsin G; Table IV, [I] 0.002 to 0.35 mM
  kinact/KI: 84000 M⁻¹ s⁻¹
[2]; Table IV, [I] 0.01 to 0.51 mM
  kinact/KI: 2300 M⁻¹ s⁻¹
Human factor XIa; Table I, [I] 3 to 330 μM
  kinact/KI: 60000 M⁻¹ s⁻¹
chymotrypsin; Table IV, [I] 0.004 to 0.33 mM
  kinact/KI: 37000 M⁻¹ s⁻¹
Cl^- r
  kinact/KI: 239 M⁻¹ s⁻¹
[3]; [4]
  kinact/KI: 81000 M⁻¹ s⁻¹

## COc1cc2ccc(NC(=N)N)cc2c(=O)o1 [7-guanidino-3-methoxyisocoumarin]
Cathepsin G; Table IV, not time dependent, at 0.49 mM
  inhibition at 490 µM: 81%
[2]; Table IV, [I] 0.01 to 0.51 mM
  kinact/KI: 55 M⁻¹ s⁻¹
Human factor XIa; Table I, [I] 3 to 330 μM
  kinact/KI: 1400 M⁻¹ s⁻¹
chymotrypsin; Table IV, [I] 0.004 to 0.33 mM
  kinact/KI: 270 M⁻¹ s⁻¹
[3]; [4]
  kinact/KI: 320 M⁻¹ s⁻¹

## N=C(N)Nc1ccc2c(Cl)c(OCCc3ccccc3)oc(=O)c2c1 [7-guanidino-4-chloro-3-(2-phenylethoxy)isocoumarin]
[1]; [I] 27 μM
  APTT: 57.3 s
Cathepsin G; Table IV, [I] 0.002 to 0.35 mM
  kinact/KI: 66000 M⁻¹ s⁻¹
[2]; Table IV, [I] 0.01 to 0.51 mM
  kinact/KI: 5.7 M⁻¹ s⁻¹
Human factor XIa; Table I, [I] 3 to 330 μM
  kinact/KI: 20000 M⁻¹ s⁻¹
chymotrypsin; Table IV, [I] 0.004 to 0.33 mM
  kinact/KI: 38000 M⁻¹ s⁻¹
Cl^- r
  kinact/KI: 342 M⁻¹ s⁻¹
[3]; [4]
  kinact/KI: 73 M⁻¹ s⁻¹

## COc1oc(=O)c2cc(NC(=N)N)ccc2c1Cl [7-guanidino-4-chloro-3-methoxyisocoumarin]
[1]; [I] 21 μM
  APTT: 83.8 s
Cathepsin G; Table IV, [I] 0.002 to 0.35 mM
  kinact/KI: 11000 M⁻¹ s⁻¹
[2]; Table IV, [I] 0.01 to 0.51 mM
  kinact/KI: 860 M⁻¹ s⁻¹
Human factor XIa; Table I, [I] 3 to 330 μM
  kinact/KI: 36200 M⁻¹ s⁻¹
chymotrypsin; Table IV, [I] 0.004 to 0.33 mM
  kinact/KI: 7200 M⁻¹ s⁻¹
Cl^- r
  kinact/KI: 75 M⁻¹ s⁻¹
[3]; [4]
  kinact/KI: 6400 M⁻¹ s⁻¹

## N=C(N)SCCOc1oc(=O)c2cc(NC(=O)Nc3ccccc3)ccc2c1Cl [PhNHCONH-CiTEtOIC, 7-(phenylcarbamoylamino)-4-chloro-3-(2-isothiureidoethoxy)isocoumarin]
Cathepsin G; Table X, [I] 33-46 μM
  kinact/KI: 100 M⁻¹ s⁻¹
[2]; Table X, [I] 33-46 μM
  kinact/KI: 840 M⁻¹ s⁻¹
Human factor XIa; Table VIII, [I] 0.7-0.8 μM
  kinact/KI: 104000 M⁻¹ s⁻¹
chymotrypsin; Table X, [I] 0.9-43 μM
  kinact/KI: 16000 M⁻¹ s⁻¹
[3]; pH 7.5, Table X, biphasic inhibition, read-out: kobs/[I] (biphasic, first value)
  kinact/KI: 46000 M⁻¹ s⁻¹
[3]; pH 7.5, Table X, biphasic inhibition, read-out: kobs/[I] (biphasic, second value)
  kinact/KI: 5730 M⁻¹ s⁻¹
